Measurements as given in patent US20260063641A1, “COMPOSITIONS AND METHODS FOR LABELING AND DETECTING BINDING PARTNERS” (UNIVERSITY OF UTAH RESEARCH FOUNDATION, priority 2022, published 2026).

Target: T1, BRD4 (Homo sapiens, UniProt O60885)
T1 construct: host or cells: HEK293 transiently transfected with the BioTAC plasmid
Experiment: BioTAC proximity labeling, streptavidin pulldown and western blot for BRD4
Assay type: cell-based
Conditions: HEK293 transiently transfected with miniTurbo-FKBP12F36V, 100 μM biotin, 30 min time point
Experimental: Next bifunctional molecule guided-proximity labeling experiments were performed using validated reagents. HEK293 cells transiently transfected with mTurbo-FKBP12F36V were treated with 100 μM biotin, 1 μM bifunctional (+)-JQ1 recruiters, and variable concentrations of free (+)-JQ1 to off-compete the bifunctional molecule and rescue biotinylation. Biotinylated proteins were isolated from cell lysates via streptavidin bead pulldown and analyzed by western blot for BRD4, a primary target of (+)-JQ1.
0.6 million HEK293 cells were plated into wells containing 1 mL of complete media (DMEM, 10% FBS, 1% pen/strep) and incubated overnight. Cells were transiently transfected with 100 μL of OptiMEM media containing 1 μg of BioTAC plasmid and 3 μL of TransIT-2020 transfection reagent (Mirus, MIR5400) for 24 hr. Following a media change, cells were pre-treated with parental molecules or DMSO for 10 min, then treated with bifunctional compound for 10 min, and finally labeled in 100 μM biotin for the indicated time. Cells were washed twice with DPBS then harvested into 1.5 mL tubes. […] Protein concentration was determined by BCA assay (Thermo, 23225), then 100 ug protein was rotated overnight at 4° C. with 8 μL of streptavidin magnetic beads (Thermo, 88817) that had been prewashed twice in RIPA lysis buffer. […]

CC[C@H](C(=O)N1CCCC[C@H]1C(=O)O[C@H](CCc1ccc(OC)c(OC)c1)c1ccccc1OCC(=O)NCCOCCOCCOCCNC(=O)C[C@@H]1N=C(c2ccc(Cl)cc2)c2c(sc(C)c2C)-n2c(C)nnc21)c1cc(OC)c(OC)c(OC)c1 [Cpd1, (R)-1-(2-((17-((S)-4-(4-Chlorophenyl)-2,3,9-trimethyl-6H-thieno[3,2-f][1,2,4]triazolo[4,3-a][1,4]diazepin-6-yl)-2,16-dioxo-6,9,12-trioxa-3,15-diazaheptadecyl)oxy)phenyl)-3-(3,4-dimethoxyphenyl)propyl (S)-1-((S)-2-(3,4,5-trimethoxyphenyl)butanoyl)piperidine-2-carboxylate]
BRD4 labeling and rescue (immunoblot of streptavidin pulldown): high BRD4-labeling and rescue
